Source: patent publication US12239134B2, “Plant antimicrobial compositions including an emulsifier and/or ozone and methods of use” (Arizona Board of Regents on Behalf of The University of …, priority 2018, dated 2025)

System: Salmonella Newport
Experiment: Biofilm formation on food contact surface coupons, direct plating
Assay type: cell-based, Salmonella enterica
Details: two-minute treatment
Procedure: A protocol based on direct plating was also evaluated for testing the biofilm formation by Salmonella or L. monocytogenes. Biofilms were formed on three different food contact surface coupons (HDPE, Buna-N rubber, and 316 stainless steel) for up to 3 days in 35 mm mini-petri dishes. Biofilms were formed using a 1:10 diluted TSB solution (10 mL) with either S. enterica or L. monocytogenes inoculum (100 μL). The diluted TSB was changed every 16-18 hours with new 1:10 diluted TSB (10 mL). Coupons were removed for sampling and enumeration of strongly attached bacteria at three different time points (Day 0, 1, and 3). The coupons were rinsed with deionized water five times to remove planktonic cells. Then the coupons were immersed in 10 mL of BPW. The coupons were sonicated for 2 minutes using different settings (Tables 11 and 12) for each organism. After sonication, the solution was serially diluted and plated on Tryptic Soy Agar (TSA). Plates were incubated at 37° C. for 24-48 hours. The colonies were counted and the colony forming units were determined for the various sonication settings, so that the appropriate setting with the most recovery could be determined. […] These settings were used in further experiments to recover the bacterial cells from coupons during sampling and enumeration (by spread plating) of the bacteria in biofilms.
The reduction in bacterial biofilm formation was also tested using a direct plating method. Biofilms were formed on six different food contact surface coupons (HDPE, Buna-N rubber, PC, PVC, and stainless steel 304 and 316) in separate 35 mm mini-petri dishes and evaluated at three different time points (Day 0, 1, and 3). Biofilms were formed using a 1:10 diluted TSB solution (10 mL) with either S. enterica or L. monocytogenes inoculum (100 μL). The coupons were also washed and treated with antimicrobial solutions containing the plant-based emulsifier and the essential oil/plant extracts at various concentrations. The diluted TSB was changed every 16-18 hours with new 1:10 diluted TSB (10 mL). The coupons were rinsed in the antimicrobial solution before adding them to the petri dishes containing the fresh, diluted TSB. After their specific time points, coupons were removed aseptically using sterile forceps from the petri dish. The coupons were rinsed by submerging in 25 mL of sterile deionized H2O and swirled five times to remove planktonic cells. After rinsing, they were placed into a new petri dish immersed in 10 mL of BPW. The coupons were sonicated for 2 minutes on ice using different settings for each organism. After sonication, the sonicated solution was serially diluted using 0.1% peptone water and spread plated on TSA in duplicate. Plates were incubated overnight at 37° C. for 24-48 hours, after which, the colonies were counted, to establish the efficacy of the antimicrobial solutions (Tables 17-25).

In the case of O=CC=Cc1ccccc1 [Cinnamaldehyde, cinnamaldehyde], the “Survivors of Salmonella Newport on food contact surface” value (shortened to “Survivors of Salmonella Newport”) (0.5% with 0.0001% saponin microemulsion, Day 0, 304 SS) is reported as 4.31 Log CFU/mL, the “Survivors of Salmonella Newport” value (0.5% with 0.0001% saponin microemulsion, Day 0, 316 SS) is reported as 4.30 Log CFU/mL and the “Survivors of Salmonella Newport” value (0.5% with 0.0001% saponin microemulsion, Day 0, Buna N) is reported as 4.23 Log CFU/mL. For the same compound, the “Survivors of Salmonella Newport” value (0.5% with 0.0001% saponin microemulsion, Day 0, HDPE) was 4.27 Log CFU/mL, the “Survivors of Salmonella Newport” value (0.5% with 0.0001% saponin microemulsion, Day 0, PC) was 4.06 Log CFU/mL and the “Survivors of Salmonella Newport” value (0.5% with 0.0001% saponin microemulsion, Day 0, PVC) was 3.93 Log CFU/mL. For the same compound, the “Survivors of Salmonella Newport” value (0.5% with 0.0001% saponin microemulsion, Day 1, 304 SS) was 4.45 Log CFU/mL, the “Survivors of Salmonella Newport” value (0.5% with 0.0001% saponin microemulsion, Day 1, 316 SS) was 4.48 Log CFU/mL and the “Survivors of Salmonella Newport” value (0.5% with 0.0001% saponin microemulsion, Day 1, Buna N) was 4.87 Log CFU/mL. For the same compound, the “Survivors of Salmonella Newport” value (0.5% with 0.0001% saponin microemulsion, Day 1, HDPE) was 4.24 Log CFU/mL, the “Survivors of Salmonella Newport” value (0.5% with 0.0001% saponin microemulsion, Day 1, PC) was 4.20 Log CFU/mL and the “Survivors of Salmonella Newport” value (0.5% with 0.0001% saponin microemulsion, Day 1, PVC) was 4.36 Log CFU/mL. The “Survivors of Salmonella Newport” value (0.5% with 0.0001% saponin microemulsion, Day 3, 304 SS) was 4.39 Log CFU/mL, the “Survivors of Salmonella Newport” value (0.5% with 0.0001% saponin microemulsion, Day 3, 316 SS) was 4.26 Log CFU/mL and the “Survivors of Salmonella Newport” value (0.5% with 0.0001% saponin microemulsion, Day 3, Buna N) was 4.34 Log CFU/mL. The “Survivors of Salmonella Newport” value (0.5% with 0.0001% saponin microemulsion, Day 3, HDPE) was 3.24 Log CFU/mL, the “Survivors of Salmonella Newport” value (0.5% with 0.0001% saponin microemulsion, Day 3, PC) was 3.75 Log CFU/mL and the “Survivors of Salmonella Newport” value (0.5% with 0.0001% saponin microemulsion, Day 3, PVC) was 4.21 Log CFU/mL. For the same compound, the “Survivors of Salmonella Newport” value (0.7% with 0.0001% saponin microemulsion, Day 0, 304 SS) was 4.0 Log CFU/mL, the “Survivors of Salmonella Newport” value (0.7% with 0.0001% saponin microemulsion, Day 0, 316 SS) was 4.68 Log CFU/mL and the “Survivors of Salmonella Newport” value (0.7% with 0.0001% saponin microemulsion, Day 0, Buna N) was 4.08 Log CFU/mL. The “Survivors of Salmonella Newport” value (0.7% with 0.0001% saponin microemulsion, Day 0, HDPE) was 4.42 Log CFU/mL, the “Survivors of Salmonella Newport” value (0.7% with 0.0001% saponin microemulsion, Day 0, PC) was 4.11 Log CFU/mL and the “Survivors of Salmonella Newport” value (0.7% with 0.0001% saponin microemulsion, Day 0, PVC) was less than 1 Log CFU/mL. For the same compound, the “Survivors of Salmonella Newport” value (0.7% with 0.0001% saponin microemulsion, Day 1, 304 SS) was 3.68 Log CFU/mL, the “Survivors of Salmonella Newport” value (0.7% with 0.0001% saponin microemulsion, Day 1, 316 SS) was 3.0 Log CFU/mL and the “Survivors of Salmonella Newport” value (0.7% with 0.0001% saponin microemulsion, Day 1, Buna N) was 3.24 Log CFU/mL. For the same compound, the “Survivors of Salmonella Newport” value (0.7% with 0.0001% saponin microemulsion, Day 1, HDPE) was less than 1 Log CFU/mL, the “Survivors of Salmonella Newport” value (0.7% with 0.0001% saponin microemulsion, Day 1, PC) was 3.29 Log CFU/mL and the “Survivors of Salmonella Newport” value (0.7% with 0.0001% saponin microemulsion, Day 1, PVC) was less than 1 Log CFU/mL. For the same compound, the “Survivors of Salmonella Newport” value (0.7% with 0.0001% saponin microemulsion, Day 3, 304 SS) was less than 1 Log CFU/mL, the “Survivors of Salmonella Newport” value (0.7% with 0.0001% saponin microemulsion, Day 3, 316 SS) was less than 1 Log CFU/mL and the “Survivors of Salmonella Newport” value (0.7% with 0.0001% saponin microemulsion, Day 3, Buna N) was less than 1 Log CFU/mL. The “Survivors of Salmonella Newport” value (0.7% with 0.0001% saponin microemulsion, Day 3, HDPE) was less than 1 Log CFU/mL, the “Survivors of Salmonella Newport” value (0.7% with 0.0001% saponin microemulsion, Day 3, PC) was less than 1 Log CFU/mL and the “Survivors of Salmonella Newport” value (0.7% with 0.0001% saponin microemulsion, Day 3, PVC) was less than 1 Log CFU/mL. For the same compound, the “Survivors of Salmonella Newport” value (1% with 0.0001% saponin microemulsion, Day 0, 304 SS) was less than 1 Log CFU/mL, the “Survivors of Salmonella Newport” value (1% with 0.0001% saponin microemulsion, Day 0, 316 SS) was less than 1 Log CFU/mL and the “Survivors of Salmonella Newport” value (1% with 0.0001% saponin microemulsion, Day 0, Buna N) was less than 1 Log CFU/mL. The “Survivors of Salmonella Newport” value (1% with 0.0001% saponin microemulsion, Day 0, HDPE) was less than 1 Log CFU/mL, the “Survivors of Salmonella Newport” value (1% with 0.0001% saponin microemulsion, Day 0, PC) was less than 1 Log CFU/mL and the “Survivors of Salmonella Newport” value (1% with 0.0001% saponin microemulsion, Day 0, PVC) was less than 1 Log CFU/mL. For the same compound, the “Survivors of Salmonella Newport” value (1% with 0.0001% saponin microemulsion, Day 1, 304 SS) was less than 1 Log CFU/mL, the “Survivors of Salmonella Newport” value (1% with 0.0001% saponin microemulsion, Day 1, 316 SS) was less than 1 Log CFU/mL and the “Survivors of Salmonella Newport” value (1% with 0.0001% saponin microemulsion, Day 1, Buna N) was less than 1 Log CFU/mL. For the same compound, the “Survivors of Salmonella Newport” value (1% with 0.0001% saponin microemulsion, Day 1, HDPE) was less than 1 Log CFU/mL, the “Survivors of Salmonella Newport” value (1% with 0.0001% saponin microemulsion, Day 1, PC) was less than 1 Log CFU/mL and the “Survivors of Salmonella Newport” value (1% with 0.0001% saponin microemulsion, Day 1, PVC) was less than 1 Log CFU/mL. For the same compound, the “Survivors of Salmonella Newport” value (1% with 0.0001% saponin microemulsion, Day 3, 304 SS) was less than 1 Log CFU/mL, the “Survivors of Salmonella Newport” value (1% with 0.0001% saponin microemulsion, Day 3, 316 SS) was less than 1 Log CFU/mL and the “Survivors of Salmonella Newport” value (1% with 0.0001% saponin microemulsion, Day 3, Buna N) was less than 1 Log CFU/mL. The “Survivors of Salmonella Newport” value (1% with 0.0001% saponin microemulsion, Day 3, HDPE) was less than 1 Log CFU/mL, the “Survivors of Salmonella Newport” value (1% with 0.0001% saponin microemulsion, Day 3, PC) was less than 1 Log CFU/mL and the “Survivors of Salmonella Newport” value (1% with 0.0001% saponin microemulsion, Day 3, PVC) was less than 1 Log CFU/mL.
